Consider eleven compounds from patent EP3831940A1, “SMALL MOLECULE INHIBITORS OF CRISPR-CAS ASSOCIATED ACTIVITY” (Danmarks Tekniske Universitet, priority 2019, dated 2021).

The experiment deals with T1, spCas9:gRNA complex (Streptococcus pyogenes serotype M1, UniProt Q99ZW2).
T1 construct: purchased New England Biolabs
Nature of the experiment: in vitro DNA cleavage assay (agarose gel). The experiment is classed as biochemical. Here is the method:
The in vitro DNA cleavage assay was carried out as described by (Pawluk, N et al., 2016) with the following modifications. SpyCas9 (New England Biolabs) (5nM) was incubated with candidate compound (50∼500µM) for 15 min at 37°C in Cas9 nuclease buffer (New England Biolabs). Alt-R crRNA:tracrRNA (Integrated DNA Technologies) (6nM) was added later and incubated again for 15min at 37°C. Finally, target dsDNA (1nM) was added and incubated for 10 min at 37°C for the cleavage. The reaction was stopped by adding Proteinase K. The cleaved and un-cleaved fraction of target dsDNA were visualized after separation on a 1% agarose gel.
Control assays were performed in parallel, where the candidate compound was substituted with 5µM AcrIIA2, as positive control; either 5µM GFP protein or no protein (DMSO) as negative control; and phenolic Mannich base inhibitor, ZL006 (Sigma-Aldrich). The AcrIIA2 and GFP proteins were obtained from E. coli cells transformed with the AcrIIA2- and GFP-expression plasmids (see example 1.2 and 1.3).

[1] abbreviates: biphenyl analogues, 80µM or 200µM, Figure 5.
Setting [2] is: ACM37 and pyrrolylthiazole analogues, 200µM or 500µM, Figure 4.

T1 sequence (Q99ZW2 whole entry, one chain of several): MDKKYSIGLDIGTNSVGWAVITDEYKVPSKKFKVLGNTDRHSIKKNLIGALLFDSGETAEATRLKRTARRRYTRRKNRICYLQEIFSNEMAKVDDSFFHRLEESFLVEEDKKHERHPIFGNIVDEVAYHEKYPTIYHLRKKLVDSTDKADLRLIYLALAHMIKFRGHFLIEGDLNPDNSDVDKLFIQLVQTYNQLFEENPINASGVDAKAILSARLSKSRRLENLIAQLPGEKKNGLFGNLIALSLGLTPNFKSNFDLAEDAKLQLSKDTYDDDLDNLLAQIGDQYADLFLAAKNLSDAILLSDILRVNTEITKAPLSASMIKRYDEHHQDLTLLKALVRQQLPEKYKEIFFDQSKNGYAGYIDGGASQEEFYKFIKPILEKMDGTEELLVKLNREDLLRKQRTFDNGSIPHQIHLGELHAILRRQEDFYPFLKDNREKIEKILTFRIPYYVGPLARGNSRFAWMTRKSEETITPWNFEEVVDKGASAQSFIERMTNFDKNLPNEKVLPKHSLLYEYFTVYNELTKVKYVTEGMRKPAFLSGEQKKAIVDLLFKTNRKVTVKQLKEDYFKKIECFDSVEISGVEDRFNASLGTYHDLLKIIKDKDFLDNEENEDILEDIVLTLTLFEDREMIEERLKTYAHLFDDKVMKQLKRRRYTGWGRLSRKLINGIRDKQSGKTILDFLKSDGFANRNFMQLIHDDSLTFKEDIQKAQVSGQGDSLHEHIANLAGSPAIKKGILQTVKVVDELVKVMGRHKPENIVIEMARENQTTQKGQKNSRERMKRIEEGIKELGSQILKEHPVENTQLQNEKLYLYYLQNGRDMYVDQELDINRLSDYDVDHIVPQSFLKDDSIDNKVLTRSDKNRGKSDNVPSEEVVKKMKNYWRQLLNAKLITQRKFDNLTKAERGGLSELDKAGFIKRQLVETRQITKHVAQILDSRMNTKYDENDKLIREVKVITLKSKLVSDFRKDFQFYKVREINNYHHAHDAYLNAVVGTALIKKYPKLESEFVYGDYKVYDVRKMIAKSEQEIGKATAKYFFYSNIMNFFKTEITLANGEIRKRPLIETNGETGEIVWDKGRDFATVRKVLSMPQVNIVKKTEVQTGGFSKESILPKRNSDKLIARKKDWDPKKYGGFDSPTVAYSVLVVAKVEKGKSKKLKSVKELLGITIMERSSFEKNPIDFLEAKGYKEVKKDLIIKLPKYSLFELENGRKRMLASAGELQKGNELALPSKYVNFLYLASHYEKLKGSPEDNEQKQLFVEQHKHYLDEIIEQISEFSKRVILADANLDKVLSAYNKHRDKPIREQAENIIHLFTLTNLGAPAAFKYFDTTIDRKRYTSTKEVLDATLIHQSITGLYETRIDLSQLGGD

Consider `Cc1cc(NS(=O)(=O)c2ccc(-c3cccc(C(=O)N4CCC(C)CC4)c3)cc2)no1` [ACM37-A17, N-(5-Methylisoxazol-3-yl)-3'-(4-methylpiperidine-1-carbonyl)-[1,1'-biphenyl]-4-sulfonamide], for which the “inhibitors of spCas9:gRNA mediated target DNA cleavage” value under setting [1] is “inhibitors”.
As to `Cc1nc(-c2cc(S(=O)(=O)Nc3ccon3)cn2C)sc1C(=O)N1CCC(C)CC1` [ACM37-A23a, N-(isoxazol-3-yl)-1-methyl-5-(4-methyl-5-(4-methylpiperidine-1-carbonyl)thiazol-2-yl)-1H-pyrrole-3-sulfonamide], the “inhibitors of spCas9:gRNA mediated target DNA cleavage” value under setting [2] is “most potent inhibitors”.
Consider `CC1CCN(C(=O)c2cccc(-c3ccc(S(=O)(=O)Nc4ccon4)cc3)c2)CC1` [ACM37-A17a, N-(Isoxazol-3-yl)-3'-(4-methylpiperidine-1-carbonyl)-[1,1'-biphenyl]-4-sulfonamide], for which the “inhibitors of spCas9:gRNA mediated target DNA cleavage” value under setting [1] is recorded as “inhibitors”.
On to `Cc1cc(NS(=O)(=O)c2cc(-c3nc(C)c(C(=O)N4CCCCCC4)s3)n(C)c2C)no1` [ACM37-A10, 5-(5-(Azepane-1-carbonyl)-4-methylthiazol-2-yl)-1,2-dimethyl-N-(5-methylisoxazol-3-yl)-1H-pyrrole-3-sulfonamide], for which the “inhibitors of spCas9:gRNA mediated target DNA cleavage” value under setting [2] is “most potent inhibitors”.
Still for that read-out and setting: for `Cc1cc(NS(=O)(=O)c2cc(-c3nc(C)c(C(=O)N4CCC(C)CC4)s3)n(C)c2)no1` [ACM37-A13] the value was “most potent inhibitors”.
With `Cc1cc(NS(=O)(=O)c2cc(-c3nc(C)c(C(=O)N4CCC(C)CC4)s3)n(C)c2C)no1` [ACM37, 1,2-Dimethyl-5-(4-methyl-5-(4-methylpiperidine-1-carbonyl)thiazol-2-yl)-N-(5-methylisoxazol-3-yl)-1H-pyrrole-3-sulfonamide], the “inhibitors of spCas9:gRNA mediated target DNA cleavage” value under setting [2] is recorded as “most potent inhibitors”. The “inhibitor of cleavage of a target DNA molecule by the spCas9:gRNA complex” value (re-screen of the 52 candidate compounds, 50∼500µM, Figure 3) was “most potent and specific inhibitor”.
`Cc1cc(NS(=O)(=O)c2cccc(-c3ccccc3)c2)no1` [ACM37-A17p, N-(5-Methylisoxazol-3-yl)-[1,1'-biphenyl]-3-sulfonamide]: the “inhibitors of spCas9:gRNA mediated target DNA cleavage” value under setting [1] was “inhibitors”.
The same measure, in the same setting: in the case of `Cc1cc(NS(=O)(=O)c2ccc(-c3ccccc3)cc2)no1` [ACM37-A17f, N-(5-Methylisoxazol-3-yl)-[1,1'-biphenyl]-4-sulfonamide] it was “inhibitors”; in that of `O=S(=O)(Nc1ccon1)c1ccc(-c2ccccc2)cc1` [ACM37-A17n, N-(Isoxazol-3-yl)-[1,1'-biphenyl]-4-sulfonamide], “inhibitors”.
As for `CC1CCN(C(=O)c2cccc(-c3ccccc3)c2)CC1` [ACM37-A17c, [1,1'-Biphenyl]-3-yl(4-methylpiperidin-1-yl)methanone], the “relative potency as inhibitor of spCas9:gRNA mediated target DNA cleavage” value (Figure 5, printed order: ACM37-A17c, then ACM37-A17, ACM37-A17p, ACM37-A17a, ACM37-A17n, ACM37-A17f) is given as “most potent”. For the same compound, the “inhibitors of spCas9:gRNA mediated target DNA cleavage” value under setting [1] is listed as “inhibitors”.
With `Cc1cc(NS(=O)(=O)c2cc(-c3nc(C)c(C(=O)N4CCCCC4)s3)n(C)c2C)no1` [ACM37-A19, 1,2-Dimethyl-5-(4-methyl-5-(piperidine-1-carbonyl)thiazol-2-yl)-N-(5-methylisoxazol-3-yl)-1H-pyrrole-3-sulfonamide], under setting [2], the “inhibitors of spCas9:gRNA mediated target DNA cleavage” value is listed as “most potent inhibitors”.
